Experimental findings from ChEMBL document CHEMBL5678818, “Discovery of potent SOS1 inhibitors that block RAS activation via disruption of the RAS-SOS1 interaction” (Proc Natl Acad Sci U S A, 2019) are described below.

The target of assay [1] is Serine/threonine-protein kinase MRCK gamma (Homo sapiens) (UniProt Q6DT37). Briefly: Inhibition of DMPK2 (unknown origin) assessed as residual activity at 1000 nM by KINOMEscan analysis relative to control.
In assay [2] the target is T1, Inhibitor of nuclear factor kappa-B kinase subunit epsilon (Homo sapiens) (UniProt Q14164).
T1 sequence (whole entry): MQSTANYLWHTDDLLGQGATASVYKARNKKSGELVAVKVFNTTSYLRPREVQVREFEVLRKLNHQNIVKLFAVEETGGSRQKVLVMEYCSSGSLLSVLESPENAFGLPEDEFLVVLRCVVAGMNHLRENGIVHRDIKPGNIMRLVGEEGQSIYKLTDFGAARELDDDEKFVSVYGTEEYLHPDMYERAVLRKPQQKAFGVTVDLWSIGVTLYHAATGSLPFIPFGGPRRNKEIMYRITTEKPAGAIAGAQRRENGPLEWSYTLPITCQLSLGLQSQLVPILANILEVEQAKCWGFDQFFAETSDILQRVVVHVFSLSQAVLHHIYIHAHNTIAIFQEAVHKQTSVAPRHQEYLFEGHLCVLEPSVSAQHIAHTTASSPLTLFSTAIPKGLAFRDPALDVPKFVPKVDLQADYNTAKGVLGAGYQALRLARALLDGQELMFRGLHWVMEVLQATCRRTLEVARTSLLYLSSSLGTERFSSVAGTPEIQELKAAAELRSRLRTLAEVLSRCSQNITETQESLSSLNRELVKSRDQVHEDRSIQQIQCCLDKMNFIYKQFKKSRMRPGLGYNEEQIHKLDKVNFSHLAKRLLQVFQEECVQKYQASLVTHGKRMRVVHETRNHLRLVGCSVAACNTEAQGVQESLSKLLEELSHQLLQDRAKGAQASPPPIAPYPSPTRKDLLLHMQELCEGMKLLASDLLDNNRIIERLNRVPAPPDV
Description: Inhibition of IKK-epsilon (unknown origin) assessed as residual activity at 1000 nM by KINOMEscan analysis relative to control.

The target in assay [3] is Activin receptor type-1 (Homo sapiens) (UniProt Q04771). Briefly: Inhibition of ACVR1 (unknown origin) assessed as residual activity at 1000 nM by KINOMEscan analysis relative to control.
Assay [4] addresses Calcium/calmodulin-dependent protein kinase type II subunit gamma (Homo sapiens) (UniProt Q13555). Description: Inhibition of CAMK2G (unknown origin) assessed as residual activity at 1000 nM by KINOMEscan analysis relative to control.
In assay [5] the test system is Phosphatidylinositol 4,5-bisphosphate 3-kinase catalytic subunit alpha isoform (Homo sapiens), P42336 [E545K]. Briefly: Inhibition of PIK3CA E545K mutant (unknown origin) assessed as residual activity at 1000 nM by KINOMEscan analysis relative to control.
In assay [6] the target is T2, Uncharacterized serine/threonine-protein kinase SBK3 (Homo sapiens) (UniProt P0C264).
T2 sequence (whole entry): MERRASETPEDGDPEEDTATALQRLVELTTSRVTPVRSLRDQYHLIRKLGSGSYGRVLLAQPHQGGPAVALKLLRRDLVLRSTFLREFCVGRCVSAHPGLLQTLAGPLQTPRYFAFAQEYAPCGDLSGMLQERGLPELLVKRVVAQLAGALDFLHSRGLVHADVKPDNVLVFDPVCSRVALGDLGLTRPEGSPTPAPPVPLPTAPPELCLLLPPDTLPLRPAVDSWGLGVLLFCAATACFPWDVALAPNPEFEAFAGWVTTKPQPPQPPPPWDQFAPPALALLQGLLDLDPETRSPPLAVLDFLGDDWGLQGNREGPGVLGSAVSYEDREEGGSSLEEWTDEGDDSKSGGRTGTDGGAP
Description: Inhibition of SgK110 (unknown origin) assessed as residual activity at 1000 nM by KINOMEscan analysis relative to control.

Assay [7] concerns the target Myosin light chain kinase, smooth muscle (Homo sapiens) (UniProt Q15746). Briefly: Inhibition of MLCK (unknown origin) assessed as residual activity at 1000 nM by KINOMEscan analysis relative to control.
For assay [8], the system named is Receptor-type tyrosine-protein kinase FLT3 (Homo sapiens), P36888 [N841I]. Description: Inhibition of FLT3 N841I mutant (unknown origin) assessed as residual activity at 1000 nM by KINOMEscan analysis relative to control.

Chain of Activin receptor type-1 (Homo sapiens) (Q04771 whole entry, looked up): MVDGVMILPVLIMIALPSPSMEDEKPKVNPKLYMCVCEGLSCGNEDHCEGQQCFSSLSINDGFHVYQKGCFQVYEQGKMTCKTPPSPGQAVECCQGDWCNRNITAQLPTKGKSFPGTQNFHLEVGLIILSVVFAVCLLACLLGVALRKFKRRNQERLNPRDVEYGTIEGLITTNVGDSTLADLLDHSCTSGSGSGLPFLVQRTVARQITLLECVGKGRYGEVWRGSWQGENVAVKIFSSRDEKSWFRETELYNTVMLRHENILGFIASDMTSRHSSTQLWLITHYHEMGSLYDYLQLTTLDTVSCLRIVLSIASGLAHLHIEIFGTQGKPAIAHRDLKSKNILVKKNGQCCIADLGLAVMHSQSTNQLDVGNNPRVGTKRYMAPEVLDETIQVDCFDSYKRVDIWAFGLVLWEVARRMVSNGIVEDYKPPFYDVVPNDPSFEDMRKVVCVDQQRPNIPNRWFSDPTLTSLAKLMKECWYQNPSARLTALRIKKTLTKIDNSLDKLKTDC
Chain of Calcium/calmodulin-dependent protein kinase type II subunit gamma (Homo sapiens) (Q13555 whole entry, canonical isoform): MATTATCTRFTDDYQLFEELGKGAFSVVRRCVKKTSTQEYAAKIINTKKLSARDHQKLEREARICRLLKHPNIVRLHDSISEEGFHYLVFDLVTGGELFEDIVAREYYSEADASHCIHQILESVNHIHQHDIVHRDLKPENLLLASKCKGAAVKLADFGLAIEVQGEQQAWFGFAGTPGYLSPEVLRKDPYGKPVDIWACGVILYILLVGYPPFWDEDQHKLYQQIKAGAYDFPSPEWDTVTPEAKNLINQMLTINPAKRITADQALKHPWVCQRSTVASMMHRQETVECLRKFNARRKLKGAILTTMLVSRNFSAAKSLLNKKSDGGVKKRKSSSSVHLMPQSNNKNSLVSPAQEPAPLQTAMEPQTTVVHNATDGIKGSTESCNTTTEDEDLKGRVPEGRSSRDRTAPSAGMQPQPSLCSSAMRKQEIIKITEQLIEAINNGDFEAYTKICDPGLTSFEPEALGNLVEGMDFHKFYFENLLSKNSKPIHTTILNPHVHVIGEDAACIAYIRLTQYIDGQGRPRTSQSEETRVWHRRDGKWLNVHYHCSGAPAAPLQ
Chain of Myosin light chain kinase, smooth muscle (Homo sapiens) (Q15746 whole entry): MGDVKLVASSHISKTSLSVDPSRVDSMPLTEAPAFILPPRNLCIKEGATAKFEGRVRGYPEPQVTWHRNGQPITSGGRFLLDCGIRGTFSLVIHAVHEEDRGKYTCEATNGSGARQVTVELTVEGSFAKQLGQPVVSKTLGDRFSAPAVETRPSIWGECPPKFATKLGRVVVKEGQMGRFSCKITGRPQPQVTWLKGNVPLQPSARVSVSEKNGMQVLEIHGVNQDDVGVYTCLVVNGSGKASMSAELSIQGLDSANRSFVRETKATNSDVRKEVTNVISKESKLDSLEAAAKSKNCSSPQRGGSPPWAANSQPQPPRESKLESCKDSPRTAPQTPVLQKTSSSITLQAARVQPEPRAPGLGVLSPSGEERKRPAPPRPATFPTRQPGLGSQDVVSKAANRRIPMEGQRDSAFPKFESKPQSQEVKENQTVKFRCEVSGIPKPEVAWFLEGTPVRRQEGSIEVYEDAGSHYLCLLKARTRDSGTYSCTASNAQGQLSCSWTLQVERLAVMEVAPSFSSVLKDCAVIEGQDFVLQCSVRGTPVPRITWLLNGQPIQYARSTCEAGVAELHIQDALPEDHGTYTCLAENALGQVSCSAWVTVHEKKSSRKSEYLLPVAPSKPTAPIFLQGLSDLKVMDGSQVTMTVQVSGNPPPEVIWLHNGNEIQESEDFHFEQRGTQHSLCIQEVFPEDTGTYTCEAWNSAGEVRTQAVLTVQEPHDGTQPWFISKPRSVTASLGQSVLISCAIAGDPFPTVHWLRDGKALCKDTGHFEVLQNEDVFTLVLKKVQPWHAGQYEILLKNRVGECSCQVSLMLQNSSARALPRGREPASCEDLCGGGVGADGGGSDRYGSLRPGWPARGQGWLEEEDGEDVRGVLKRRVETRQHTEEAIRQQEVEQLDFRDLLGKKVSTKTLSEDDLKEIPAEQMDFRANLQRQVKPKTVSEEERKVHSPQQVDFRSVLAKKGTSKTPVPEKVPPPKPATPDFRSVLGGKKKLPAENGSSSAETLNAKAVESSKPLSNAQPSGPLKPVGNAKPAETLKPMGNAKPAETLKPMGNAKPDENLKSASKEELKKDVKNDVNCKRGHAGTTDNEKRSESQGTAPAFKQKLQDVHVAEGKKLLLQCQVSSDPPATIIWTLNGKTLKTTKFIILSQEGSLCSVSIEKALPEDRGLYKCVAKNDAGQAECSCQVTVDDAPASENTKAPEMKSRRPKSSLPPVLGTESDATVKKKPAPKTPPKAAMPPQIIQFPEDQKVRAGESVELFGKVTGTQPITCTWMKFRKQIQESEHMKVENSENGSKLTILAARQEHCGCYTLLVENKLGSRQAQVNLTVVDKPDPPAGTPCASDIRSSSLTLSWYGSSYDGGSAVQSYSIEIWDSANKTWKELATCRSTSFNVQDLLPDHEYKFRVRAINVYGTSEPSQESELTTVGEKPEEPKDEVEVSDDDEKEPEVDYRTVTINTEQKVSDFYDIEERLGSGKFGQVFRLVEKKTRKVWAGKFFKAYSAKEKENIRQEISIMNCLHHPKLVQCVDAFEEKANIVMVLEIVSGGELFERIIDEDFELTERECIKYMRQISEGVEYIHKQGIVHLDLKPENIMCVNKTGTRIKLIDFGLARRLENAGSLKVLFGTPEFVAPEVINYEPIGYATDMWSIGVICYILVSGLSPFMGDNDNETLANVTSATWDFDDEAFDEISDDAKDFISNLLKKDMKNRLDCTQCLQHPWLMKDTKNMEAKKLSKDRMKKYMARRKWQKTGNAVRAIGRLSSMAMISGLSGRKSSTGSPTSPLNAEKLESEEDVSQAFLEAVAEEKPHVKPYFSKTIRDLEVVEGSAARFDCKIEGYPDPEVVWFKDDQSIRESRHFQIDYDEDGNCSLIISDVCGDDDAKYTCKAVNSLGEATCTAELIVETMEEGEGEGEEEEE
Chain of Phosphatidylinositol 4,5-bisphosphate 3-kinase catalytic subunit alpha isoform (Homo sapiens), P42336 [E545K] (P42336 whole entry E545K, canonical isoform): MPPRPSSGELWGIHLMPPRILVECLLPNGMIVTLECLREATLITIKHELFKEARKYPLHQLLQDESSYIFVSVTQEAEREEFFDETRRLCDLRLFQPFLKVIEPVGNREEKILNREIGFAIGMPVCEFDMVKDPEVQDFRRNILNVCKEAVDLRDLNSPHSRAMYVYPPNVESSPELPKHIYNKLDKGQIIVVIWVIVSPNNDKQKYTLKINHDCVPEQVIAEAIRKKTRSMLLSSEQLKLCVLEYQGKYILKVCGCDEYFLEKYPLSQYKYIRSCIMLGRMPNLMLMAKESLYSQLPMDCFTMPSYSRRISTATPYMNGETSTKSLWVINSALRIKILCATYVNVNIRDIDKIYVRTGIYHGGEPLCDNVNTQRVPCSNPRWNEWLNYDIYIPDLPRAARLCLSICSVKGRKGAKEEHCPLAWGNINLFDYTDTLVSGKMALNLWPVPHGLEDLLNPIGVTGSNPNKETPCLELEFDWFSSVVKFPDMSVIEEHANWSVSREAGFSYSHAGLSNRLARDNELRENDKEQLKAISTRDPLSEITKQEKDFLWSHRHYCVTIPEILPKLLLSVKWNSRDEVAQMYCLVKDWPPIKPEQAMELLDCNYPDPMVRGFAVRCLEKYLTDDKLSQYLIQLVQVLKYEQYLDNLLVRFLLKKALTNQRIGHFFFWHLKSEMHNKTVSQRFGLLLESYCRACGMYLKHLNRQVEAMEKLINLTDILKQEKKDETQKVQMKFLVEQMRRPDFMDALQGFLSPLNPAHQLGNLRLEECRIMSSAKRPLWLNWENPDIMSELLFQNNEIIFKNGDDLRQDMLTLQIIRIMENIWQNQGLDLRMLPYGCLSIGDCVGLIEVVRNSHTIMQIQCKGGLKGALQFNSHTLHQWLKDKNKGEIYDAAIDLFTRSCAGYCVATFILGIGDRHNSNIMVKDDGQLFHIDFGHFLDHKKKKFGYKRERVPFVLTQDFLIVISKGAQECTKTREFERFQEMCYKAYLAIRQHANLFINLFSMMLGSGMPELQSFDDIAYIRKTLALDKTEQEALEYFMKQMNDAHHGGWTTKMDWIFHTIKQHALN

Turning to `COc1cc2nc(C)nc(N[C@H](C)c3cccc(-c4cn[nH]c4)c3)c2cc1OC`, the Activity was 100% in assay [1]; 88% in assay [2]; 100% in assay [3]; 83% in assay [4]; 54% in assay [5]; 100% in assay [6]. In addition, the Activity stood at 100% in assay [7] and 94% in assay [8].

With `COc1cc2ncnc(N[C@H](C)c3cccc4ccccc34)c2cc1OC`, the Activity came to 93% in assay [1]; 98% in assay [2]; 100% in assay [3]; 92% in assay [4]; 98% in assay [5]; 100% in assay [6]. For the same compound, the Activity in assay [7] and in assay [8] was 100% throughout.
